Assay results as given in publication PMC8903076 (Journal of medicinal chemistry, 2021).

Target: human GCGR (Homo sapiens, UniProt P47871)
Test: CRE-luciferase reporter assay
Type: cell-based
Details: HEK293 cells stably expressing human GCGR

human GCGR, sequence (P47871 26-477): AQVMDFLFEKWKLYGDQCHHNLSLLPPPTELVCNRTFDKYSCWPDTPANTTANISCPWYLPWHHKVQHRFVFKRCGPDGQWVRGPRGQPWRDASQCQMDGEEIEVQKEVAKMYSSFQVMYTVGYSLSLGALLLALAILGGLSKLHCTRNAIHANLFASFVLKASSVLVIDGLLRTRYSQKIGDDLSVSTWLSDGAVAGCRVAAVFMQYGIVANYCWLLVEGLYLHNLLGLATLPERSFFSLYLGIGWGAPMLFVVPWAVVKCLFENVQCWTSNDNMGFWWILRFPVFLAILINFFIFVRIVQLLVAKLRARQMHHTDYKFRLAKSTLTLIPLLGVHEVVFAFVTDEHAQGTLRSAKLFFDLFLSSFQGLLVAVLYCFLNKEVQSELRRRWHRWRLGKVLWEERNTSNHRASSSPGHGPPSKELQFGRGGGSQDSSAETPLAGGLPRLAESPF

H-HAibQGTFTSDYSKYLDSRRAQDFVK^TailWLX^1T-NH2 [compound 18]
activity in activating GCGR (in words): completely lost the activity
